Assay results published in patent US10961222B2, “Chemical compound of isocitrate dehydrogenase inhibitor, and application thereof” (NANJING SANHOME PHARMACEUTICAL CO., LTD., priority 2016, dated 2021).

Experiments:
[1] = target: T1, IDH2-R140Q mutant enzyme (Homo sapiens, UniProt P48735, R140Q); assay: Inhibitory activity of compounds on IDH2-R140Q enzyme in vitro (diaphorase/resazurin fluorescence); format: biochemical; conditions: R140Q IC50, IDH2-R140Q, pre-incubated 16 h with enzyme and NADPH, reaction 1 h with α-ketoglutarate
T1 construct: purchased BPS 71100-1
T1 sequence (P48735 40-452 R140Q): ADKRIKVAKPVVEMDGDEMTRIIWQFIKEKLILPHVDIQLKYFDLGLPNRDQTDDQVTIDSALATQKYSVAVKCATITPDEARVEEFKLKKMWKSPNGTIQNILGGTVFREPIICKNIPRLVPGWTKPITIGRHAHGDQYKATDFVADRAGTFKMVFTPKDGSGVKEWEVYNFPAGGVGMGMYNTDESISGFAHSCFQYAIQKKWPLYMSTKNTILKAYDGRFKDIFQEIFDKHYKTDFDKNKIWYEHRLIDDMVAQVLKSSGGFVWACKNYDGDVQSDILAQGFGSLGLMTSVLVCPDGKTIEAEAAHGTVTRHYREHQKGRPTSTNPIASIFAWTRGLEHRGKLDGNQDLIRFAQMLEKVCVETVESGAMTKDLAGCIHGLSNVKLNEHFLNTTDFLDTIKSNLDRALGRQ

[2] = test system: U87-MG (IDH2-R140Q) subcutaneous xenograft tumor; assay: Subcutaneous xenograft tumor caused by U87-MG (IDH2-R140Q) mutant cells in vivo: intratumor 2-HG; set-up: species or system BALB/c nude mice; conditions: intragastric, 10 days, mean, relative to U87-MG (IDH2-R140Q) control group
Description: 1.2 Animals: BALB/c nude mice, 6-7 weeks old, female, 18-22 g, purchased from Nanjing Jinlaichang Company.
U87-MG (IDH2-R140Q) cells and U87-MG cells (wild type) were expanded, and cells in logarithmic growth phase were used for tumor inoculation in vivo. 16 mice were inoculated subcutaneously into the right lower back of the body at an amount of 2×10^6 cells/mouse (the volume ratio of cell suspension to Matrigel was 1:0.8).
The non-mutation control group was nude mice inoculated with U87-MG cells, and the test compound groups and vehicle control group were nude mice inoculated with U87-MG (IDH2-R140Q) cells.
Each group was intragastrically administered with a corresponding concentration of the compound solution, the administration volume was 100 μL/10 g body weight, and the control group was administered the same volume of blank vehicle.
After 10 days of administration, the mice were sacrificed. The tumors were exfoliated, homogenized, and the 2-HG content in the tumor was examined.
The 2-HG concentration in the homogenate of each animal tumor in each group was determined by LC-MS/MS. The percentage (2-HG %) was calculated; the calculation formula is as follows 2-HG %=(2-HG concentration of administration group tumor−2-HG concentration of U87-MG control group tumor)/(2-HG concentration of U87−MG(IDH2-R140Q) control group tumor−2-HG concentration of U87-MG control group tumor)×100%.

[3] = test system: human acute myeloid leukemia AM7577 cells; assay: Human acute myeloid leukemia NOD/SCID animal model: survival; format: in vivo, NOD/SCID mice; conditions: gavage once a day for 14 days, 14 days after administration
Description: 1.1 Compounds to be tested: the compounds of the present disclosure prepared in the above examples, each of which was formulated into a solution in corresponding concentrations by using a vehicle (2% absolute ethanol:10% Solutol™: 88% physiological saline (v/v/v)).
1.2 Cells: human acute myeloid leukemia AM7577 cells, provided by Sino-American Crown Biotechnology (Beijing) Co., Ltd
1.4 Animals: NOD/SCID mice, 3-4 weeks old, female, purchased from Beijing Huakangkang Biotechnology Co., Ltd
Each mouse was inoculated through the tail vein at an amount of 2×10^6 cells resuspended in 100 uL of PBS.
Orbital blood samples of animals were collected weekly, labeled with human CD45, and the percentage of positive cells was detected. The animals were grouped when the percentage of peripheral blood CD45+ cells reached 5%. The proportion of peripheral blood CD45+ cells reached 5% on the 40th day after inoculation. After grouping, drugs were administered by gastric gavageonce once a day for 14 days.
The mortality rate of the animals after administration and the survival period of the surviving animals were observed.

## CC(C)(O)CNc1nc(Nc2ccnc(C(F)(F)F)c2)nc(-c2cccc(C(F)(F)F)n2)n1 [AG-221, 2-methyl-1-(4-(6-(trifluoromethyl)pyridin-2-yl)-6-(2-(trifluoromethyl)pyridin-4-ylamino)-1,3,5-triazin-2ylamino)propan-2-ol, reference compound]
[1]
  IC50: 21 nM
[2]; 6.25 mg/kg
  Intratumor 2-HG(%) after 10 days of administration: 58%
[2]; 12.5 mg/kg
  Intratumor 2-HG(%) after 10 days of administration: 9%
[2]; 25 mg/kg
  Intratumor 2-HG(%) after 10 days of administration: −4%
[3]; 15 mg/kg, 8 animals per group
  Numbers of surviving animals: 6
[3]; 45 mg/kg, AG-221 group 4 animals, Example 22B group 8
  Numbers of surviving animals: 3
